One may read the IC50 as the concentration needed to halve the response being measured. The EC50 is the concentration needed to bring the measured effect to its halfway point.

Consider one molecule from patent US10576147B2, “Muramyl peptide derivative compound, synthesis and uses thereof” (BHARAT BIOTECH INTERNATIONAL LIMITED, priority 2015, dated 2020).

Each structure is given as a SMILES string. Converted amounts (≈) assume the structure as drawn.

For experiment [1], the system named is J774.2A cells. Description: Cytotoxicity assay (MTT). In kind it is cell-based. Conditions: 24 hrs, read-out: IC50 (50% cell death or toxicity). As for the experimental part: Details of an assay are as explained in example 2.2.
J774.2A cells (2×10^4/well) were plated and incubated overnight. Next day, cells were treated with various concentrations of MDP-MN (10 fold dilutions with a concentration ranging from 0.005 mg/ml to 0.5 mg/ml & 2 mg/ml) and cultured for 24 hrs. Supernatant was discarded and cells were treated with 100 μl of MTT [3-(4,5-Dimethylthiazol-2-yl)-2,5-Diphenyltetrazolium Bromide] (5 mg/ml) and incubated for 3-4 hrs until formozan crystals were formed. Later, supernatant was discarded and crystals were dissolved with DMSO for 5-10 min. Absorbance was read at 540 nm. FIG. 2 represents cell toxicity effect of MDP-MN. X-axis represents concentration in log scale and Y-axis represents % toxicity.

The test system of experiment [2] is mouse. Briefly: rPvRII specific IgG endpoint titer. In kind it is in vivo. Conditions: MDP-MN 10 μg/mouse.
In experiment [3] the test system is splenocytes. Description: Splenocyte proliferation (MTT). It is filed as cell-based, mice. Conditions: mouse splenocytes, LPS and Con-A, 48 h. The procedure: Spleens were isolated from mice and were processed to single cell suspension. 96 well flat bottom Micro titer plates were seeded with 1×10^5 cells/well with RPMI1640 media. Cells were treated with compounds, OVA, Con A (2 μg/mL) and LPS (10 μg/mL) or medium giving a final volume of […]. Plates were incubated at 37° C. with 5% CO2 in an incubator. After 48 h of incubation […] of Triazolyl blue Tetrazolium Bromide (MTT) solution was added to each well, incubated for next 4 h. Untransformed MTT was removed from each well by aspirating the supernatant ([…]) and replaced with DMSO. The absorbance was read at 570 nm after 15 min.
Immunostimulating substances act through specific (antigen-dependent) T lymphocytes, B lymphocytes, and dendritic cells and also through non-specific mechanisms of action (antigen-independent) that involves granulocytes, macrophages, and NK cells. Being a secondary lymphoid organ, spleen contains a heterogeneous population of lymphocytes to examine the immunostimulant activity. However, proliferations of immune cells like T and B cells are the benchmark for immune potentiation. Cells were treated with or without OVA or in combination with MDP and MDP-MN. Type of immune response in all treated groups was measured with LPS and Con-A splenocyte proliferation assays depicted in FIG. 3. […] This is essential for B cell expansion.

Experiment [4] deals with T1, human NOD2 (Homo sapiens, UniProt Q9HC29).
T1 construct: host or cells: HEK 293 (HEK-Blue Human NOD2 reporter cells)
T1 sequence (Q9HC29 whole entry): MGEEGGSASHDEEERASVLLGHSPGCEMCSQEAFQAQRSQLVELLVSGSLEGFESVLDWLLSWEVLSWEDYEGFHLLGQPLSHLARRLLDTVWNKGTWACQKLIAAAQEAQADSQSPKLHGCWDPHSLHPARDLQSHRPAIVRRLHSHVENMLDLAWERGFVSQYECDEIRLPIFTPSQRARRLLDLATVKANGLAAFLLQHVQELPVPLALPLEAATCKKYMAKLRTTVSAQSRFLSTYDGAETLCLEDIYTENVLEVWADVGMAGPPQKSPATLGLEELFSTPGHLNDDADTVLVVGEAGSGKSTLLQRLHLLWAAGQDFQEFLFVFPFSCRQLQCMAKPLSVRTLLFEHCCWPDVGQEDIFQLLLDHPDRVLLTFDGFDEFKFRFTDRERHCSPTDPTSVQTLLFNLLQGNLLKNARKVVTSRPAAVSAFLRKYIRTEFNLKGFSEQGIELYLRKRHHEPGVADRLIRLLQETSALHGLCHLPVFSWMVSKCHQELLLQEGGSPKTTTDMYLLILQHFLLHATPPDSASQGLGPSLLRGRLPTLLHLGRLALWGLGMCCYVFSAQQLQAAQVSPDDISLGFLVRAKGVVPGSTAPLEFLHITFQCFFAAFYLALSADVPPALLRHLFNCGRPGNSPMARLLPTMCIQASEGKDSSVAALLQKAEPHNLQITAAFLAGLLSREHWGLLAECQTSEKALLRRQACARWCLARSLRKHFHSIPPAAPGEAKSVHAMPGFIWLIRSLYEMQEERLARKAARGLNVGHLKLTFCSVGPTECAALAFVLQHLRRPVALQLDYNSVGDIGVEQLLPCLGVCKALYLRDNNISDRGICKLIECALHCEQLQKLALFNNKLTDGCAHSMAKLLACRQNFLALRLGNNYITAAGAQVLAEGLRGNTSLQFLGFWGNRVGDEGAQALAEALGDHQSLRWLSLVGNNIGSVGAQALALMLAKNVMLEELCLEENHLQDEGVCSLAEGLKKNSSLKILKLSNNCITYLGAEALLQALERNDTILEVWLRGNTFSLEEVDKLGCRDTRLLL
Briefly: NOD2 specific reporter assay (SEAP). It is filed as cell-based. The procedure: Muramyl dipeptide molecules have the ability to bind to NOD2 receptors that are present on […] the immune cells, so as to stimulate immune response. NOD2 (Nucleotide oligomerization domain) receptor is an intracellular pattern recognition receptor (PRRs) recognizes muramyl dipeptide derivatives and stimulates cascade of signalling pathways to induce immune response. […] These cells were prepared by co-transfection of human NOD2 gene and codon-optimized SEAP (secreted embryonic alkaline phosphatase) reporter gene into HEK 293 cells. Upon stimulation of cells with muramyl dipeptide derivative, NFkB gets activated, which intum secrets SEAP and it was measured in cell supernatant. Experimental details of this in-vitro assay are given as example 2.1.
HEK—Blue Human NOD2 reporter cells (5×10^4/well) were plated and cultured overnight in a humidified CO2 incubator at 37° C. […] Supernatant was collected and treated with Quanti blue detection reagent at 37° C. for 15-30 min. Absorbance was read at 630 nm. Dose response curve generated by plotting concentration of adjuvant on X-axis and % response on the Y-axis is as shown in FIG. 1. To generate dose response curve, highest absorbance shown at tested concentration was taken as 100% response and the least absorbance was taken as 0% response. Effective concentration at 50% (EC50) response was determined from the dose response curve.
Background: Reporter assays use an easily measured gene product as a stand-in for the process of interest.

Regarding `C[C@H](NC(=O)[C@@H](C)O[C@H]1[C@H](O)[C@@H](CO)OC(O)[C@@H]1NC(=O)[C@H](O)CO)C(=O)N[C@H](CCC(=O)O)C(N)=O` (stereo partly drawn) [MDP-MN, (4R)-5-amino-4-((2S)-2-((2R)-2-(((3R,4R,5S,6R)-3-((2,3-dihydroxypropanamido))-2,5-dihydroxy-6-(hydroxymethyl)tetrahydro-2H-pyran-4-yl)oxy)propanamido)propanamido)-5-oxopentanoic acid], the IC50 in experiment [1] was found to be 99.2 µg/mL (≈ 184 µM). The “increase of antibody titer vs rPvRII alone” value in experiment [2] is on record as 4 fold. For the same molecule, in experiment [3], the splenocyte proliferation result is “inducing the LPS mediated splenocyte proliferation”. Moreover, the EC50 in experiment [4] (HEK-Blue Human NOD2 reporter cells, SEAP absorbance 630 nm, 24-72 hrs, read-out: EC50 (half maximal response) (converted)) was 2490 nM. Moreover, the “% response” value turned out to be 0% in experiment [4] (at 0.01 μg/ml, normalized to least absorbance) and 100% in experiment [4] (at 10 μg/ml (plateau), normalized to highest absorbance).
